In test [1] the test system is CPAE (Calf Pulmonary Artery Endothelial) cells. Put plainly: Inhibiting activity on angiogenesis (in vitro), CPAE cells, SRB method. The following applies: Bos taurus, Endothelial cell, 96 h, read-out: IC50, CPAE. In kind it is cell-based. Here is the method:
(§1) Examination of the Inhibiting Activity on Angiogenesis (In Vitro)
(§2) The compound sample dissolved in DMSO was diluted to ten times by using MEM culture medium (in case of CPAE cells) without adding FBS (Fetal Bovine Serum) and RPMI 1640 culture (in case of EL-4 and P388D1 cells), and 20 of the solution was poured to each well of 96 well plate in triplicate for every concentration gradient. Then, each cell suspension was prepared and poured to examine the inhibiting activity on angiogenesis.
In case of CPAE (Calf Pulmonary Artery Endothelial) cells (used after 2-3 subcultures), a cell suspension having 7×10^3 cells/ml was prepared with MEM (+10% FBS+50 μg/ml ECGS) medium, and after pouring the suspension (180 μl) to each well of 96 well plate, they were cultured in a CO2 incubator (5% CO2, humidified) for 4 days.

The subject of test [2] is EL-4 (Lymphoma, murine) cells. Put plainly: Inhibiting activity on angiogenesis (in vitro), EL-4 cells, MTT method. In kind it is cell-based. The note with it: Mus musculus, EL4, 72 h, read-out: IC50, EL-4. As to the method: as §1, §2
In case of EL-4 (Lymphoma, murine) and P388D1 (leukemia, mouse) cells, a cell suspension having 1×10^4 cells/ml was prepared with RPMI1640 (+10% FBS) culture medium, and after pouring the suspension (180 μl) to each well of 96 well plate, they were cultured in a CO2 incubator (5% CO2, humidified) for 3 days.

Where [3] appears, read: CPAE cells, 4 days culture, SRB method.
Setting [4] is: EL-4 cells, 3 days culture, MTT method.

Structures are written as SMILES. Converted amounts (≈) assume the structure as drawn. Where two headings read alike, the source gives them in different places.

For `CC(C)=CC[C@H]1O[C@]1(C)[C@H]1C[C@H](OC(=O)/C=C/C=C/C=C/C=C/C(=O)O)CC[C@]12CO2` [5-Demethoxy fumagillin, 5-demethoxyfumagillin, reference compound], the half-inhibitory concentration (IC50) (commonly the midpoint of a concentration-inhibition curve) in test [1] (setting [3]) amounted to 28 ng/mL (≈ 65.3 nM); in test [2] (setting [4]), 21 ng/mL (≈ 49 nM).

As to `CC(C)=CC[C@H]1O[C@]1(C)[C@H]1CC(=O)CC[C@]1(O)CCl` [Example 4, 3-Chloromethyl-5-demethoxy-3-hydroxy-6-oxo-6-deoxyfumagillol], the figures for the IC50 in test [1] (setting [3]) and in test [2] (setting [4]) were 0.57 ng/mL (≈ 1.99 nM) and 0.46 ng/mL (≈ 1.6 nM), respectively.

On to `CC(C)=CC[C@H]1O[C@]1(C)[C@H]1C[C@H](OC(=O)NC(=O)CCl)CC[C@]12CO2` [Example 5, 5-Demethoxy-6-O-chloroacetylcarbamoylfumagillol], for which the IC50 in test [1] was 0.28 ng/mL (≈ 0.753 nM); in test [2], 0.52 ng/mL (≈ 1.4 nM).

In the case of `COc1cc(/C=C/C(=O)O[C@@H]2CC[C@]3(CO3)[C@@H]([C@@]3(C)O[C@@H]3CC=C(C)C)C2)cc(OC)c1OC` [Example 7, 5-Demethoxy-6-O-(3,4,5-trimethoxy)cinnamoyl fumagillol], the IC50 in test [1] (setting [3]) came out at 0.042 ng/mL (≈ 0.0889 nM); in test [2] (setting [4]), 0.066 ng/mL (≈ 0.14 nM).

As to `CC(C)=CC[C@H]1O[C@]1(C)[C@H]1C[C@H](OC(=O)/C=C/c2ccc(Cl)cc2)CC[C@]12CO2` [Example 8, 5-Demethoxy-6-O-(4-chlorocinnamoyl)fumagillol], the IC50 in test [1] (setting [3]) was determined as 0.32 ng/mL (≈ 0.767 nM); in test [2] (setting [4]) it was 0.26 ng/mL (≈ 0.624 nM).

Consider `CC(C)=CC[C@H]1O[C@]1(C)[C@H]1C[C@H](OC(=O)NC(=O)CCl)CC[C@]1(O)CCl` [Example 9, 4-O-chloroacetylcarbamoyl-l-chloromethyl-l-cyclohexanol], for which the figures for the IC50 in test [1] (setting [3]) and in test [2] (setting [4]) were 0.36 ng/mL (≈ 0.882 nM) and 0.43 ng/mL (≈ 1.05 nM), respectively.

On to `COc1ccc(CCC(=O)O[C@@H]2CC[C@]3(CO3)[C@@H]([C@@]3(C)O[C@@H]3CC=C(C)C)C2)cc1` [Example 10, 5-Demethoxy-6-O-[3-(4-methoxyphenyl)propionyl] fumagillol], for which the values for the concentration for half-maximal inhibition (IC50) in test [1] (setting [3]) and in test [2] (setting [4]) were 0.46 ng/mL (≈ 1.11 nM) and 0.82 ng/mL (≈ 1.98 nM), respectively.

Turning to `CC(C)=CC[C@H]1O[C@]1(C)[C@H]1C[C@H](OC(=O)OCc2ccccc2)CC[C@]12CO2` [Example 11, O-benzyloxycarbonyl-5-demethoxyfumagillol], the half-maximal inhibitory concentration (IC50) in test [1] amounted to 0.012 ng/mL (≈ 0.031 nM); in test [2] (setting [4]) it was 0.041 ng/mL (≈ 0.106 nM).

Take `CC(C)=CC[C@H]1O[C@]1(C)[C@H]1CC(NC(=O)/C=C/c2ccc(N(C)C)cc2)CC[C@]12CO2` (stereo partly shown) [Example 14, 6-(4-Dimethylaminocinnamoyl)amino-5-demethoxy-6-deoxyfumagillol]: the IC50 worked out at 0.19 ng/mL (≈ 0.447 nM) in test [1] (setting [3]) and 0.41 ng/mL (≈ 0.966 nM) in test [2] (setting [4]).

For the molecule `CC(C)=CC[C@H]1O[C@]1(C)[C@H]1CC(=O)CC[C@]1(O)C[S+](C)C` [Example 20, 2-(1,2-Epoxy-1,5-dimethyl-4-hexenyl)-1-dimethylsulfoniomethyl-4-oxo-1-cyclohexanol iodide], the IC50 came to 0.012 ng/mL in test [1] (setting [3]) and 0.032 ng/mL in test [2] (setting [4]).

`CO[C@@H]1[C@H](OC(=O)/C=C/C=C/C=C/C=C/C(=O)O)CC[C@]2(CO2)[C@H]1[C@@]1(C)O[C@@H]1CC=C(C)C` [Fumagillin, reference compound]: the IC50 turned out to be 3.2 ng/mL (≈ 6.98 nM) in test [1] and 1.6 ng/mL (≈ 3.49 nM) in test [2].

The values are drawn from patent US6040337A, “5-demethoxyfumagillol derivatives and processes for preparing the same” (priority 1998, dated 2000).
